Read-outs that look alike come from different tables or passages of the source.
Assays:
HIV-1 [1] = settings: HIV-1, TZM-bl cells, 24 h
HIV-1 [2] = assay: microbe, parasite or virus in culture; settings: Human immunodeficiency virus 1, TZM-bl, 24 h, read-out: EC50-2 (reporter protein expression)
[3] = Toxicity in TZM-bl cells, Cell Tox Green (CTxG) assay (CC50); settings: human, mock-infected TZM-bl cells
EV1 [4] = assay: EV1 production in RPE cells, plaque assay on A549-Npro cells; type: cell-based, echovirus 1; settings: obatoclax 0.37 μM, emetine 0.12 μM, homoharringtonine 0.12 μM; titrated on A549-Npro cells
EV1 [5] = tested on: EV1
in vitro = settings: human
EV1 [6] = assay: microbe, parasite or virus in culture; settings: Enterovirus B, RPE, 48 h, read-out: EC50-1 (CTG assay)
HSV-2 [7] = assay: HSV-2 production in RPE cells, plaque assay on A549-Npro cells; type: cell-based, herpes simplex virus type 2; settings: 0.12 μM obatoclax, 0.04 μM emetine, 0.37 μM niclosamide, 0.37 μM ganciclovir; titrated on A549-Npro cells
HSV-2 [8] = tested on: HSV-2
HSV-2 [9] = assay: microbe, parasite or virus in culture; settings: Human alphaherpesvirus 2, RPE, 72 h, read-out: EC50-1 (CTG assay)
RVFV = assay: microbe, parasite or virus in culture; type: cell-based; settings: Rift Valley fever virus, RPE, 24 h, read-out: EC50-1 (CTG assay)
FLUAV = assay: microbe, parasite or virus in culture; type: cell-based; settings: Influenza A virus, RPE, 24 h, read-out: EC50-1 (CTG assay)
RVFV-RFP [10] = settings: RPE cells, fluorescent microscopy and CTG assay
HMPV-GFP [11] = tested on: HMPV-GFP
FLUAV-GFP [12] = tested on: FLUAV-GFP
RVFV-RFP [13] = assay: microbe, parasite or virus in culture; settings: Rift Valley fever virus, RPE, 24 h, read-out: EC50-2 (reporter protein expression)
HMPV-GFP [14] = assay: microbe, parasite or virus in culture; settings: human metapneumovirus, RPE, 96 h, read-out: EC50-2 (reporter protein expression)
FLUAV-GFP [15] = assay: microbe, parasite or virus in culture; settings: Influenza A virus, RPE, 24 h, read-out: EC50-2 (reporter protein expression)
FLUAV-GFP [16] = assay: microbe, parasite or virus in culture; settings: Influenza A virus, RPE, read-out: Viability of FLUAV-GFP-infected cells (%)
[17] = Drug combination experiment: viability of mock-infected RPE cells (CTG); settings: human

Cc1ccc(C(=O)Nc2ccc(S(=O)(=O)O)c3cc(S(=O)(=O)O)cc(S(=O)(=O)O)c23)cc1NC(=O)c1cccc(NC(=O)Nc2cccc(C(=O)Nc3cc(C(=O)Nc4ccc(S(=O)(=O)O)c5cc(S(=O)(=O)O)cc(S(=O)(=O)O)c45)ccc3C)c2)c1 [Suramin]
SI (CC50/EC50) (HIV-1 [1]): >375 | SI (CC50/EC50) (HIV-1 [1]; listed as suramin): > 375 | EC50 (HIV-1 [2]): 80 ± 30 nM | CC50 at 24 h [3]: > 30000 nM

COC(=O)C[C@](O)(CCCC(C)(C)O)C(=O)O[C@@H]1C(OC)=C[C@]23CCCN2CCc2cc4c(cc2[C@H]13)OCO4 [Homoharringtonine]
EV1 production in RPE cells (plaque assay) (EV1 [4]): lowered the production of EV1 | Initial screening: rescue of EV1-infected cells (EV1 [5]): rescued cells from virus-mediated death | CC50 (in vitro): > 30000 nM | EC50 (EV1 [6]): 140 ± 30 nM

Cc1c(-c2ccc(-c3ccccc3F)cc2)nc2ccc(F)cc2c1C(=O)O [Brequinar]
SI (CC50/EC50) (HIV-1 [1]): >750 | SI (CC50/EC50) (HIV-1 [1]; listed as brequinar): > 750 | EC50 (HIV-1 [2]): 40 ± 10 nM | CC50 at 24 h [3]: > 30000 nM

O=C(Nc1ccc([N+](=O)[O-])cc1Cl)c1cc(Cl)ccc1O [Niclosamide]
HSV-2 production in RPE cells (plaque assay) (HSV-2 [7]): lowered the production of HSV-2 | Initial screening: rescue of HSV-2-infected cells (HSV-2 [8]): rescued cells from virus-mediated death | SI (CC50/EC50) (HSV-2 [8]): 3 | CC50 (in vitro): 1310 ± 20 nM | EC50 (HSV-2 [9]): 430 ± 40 nM

CC[C@H]1CN2CCc3cc(OC)c(OC)cc3[C@@H]2C[C@@H]1C[C@H]1NCCc2cc(OC)c(OC)cc21 [Emetine]
EC50 (RVFV): 100 ± 20 nM | EC50 (FLUAV): 130 ± 50 nM | HSV-2 production in RPE cells (plaque assay) (HSV-2 [7]): lowered the production of HSV-2 | EV1 production in RPE cells (plaque assay) (EV1 [4]): lowered the production of EV1 | Initial screening: rescue of HSV-2-infected cells (HSV-2 [8]): rescued cells from virus-mediated death | SI (CC50/EC50) (HSV-2 [8]): 37 | Initial screening: rescue of EV1-infected cells (EV1 [5]): rescued cells from virus-mediated death | RVFV-mediated RFP expression (RVFV-RFP [10]): inhibited RVFV-mediated RFP expression at non-cytotoxic concentrations | Initial screening: HMPV-mediated GFP expression (HMPV-GFP [11]): lowered GFP expression without detectable cytotoxicity | SI (CC50/EC50) (HMPV-GFP [11]): 10 | Initial screening: FLUAV-mediated GFP expression (FLUAV-GFP [12]): lowered GFP expression without detectable cytotoxicity | CC50 (in vitro): > 30000 nM | EC50 (HSV-2 [9]): 30 ± 10 nM | EC50 (EV1 [6]): 120 ± 40 nM | EC50 (RVFV-RFP [13]): 430 ± 100 nM | EC50 (HMPV-GFP [14]): 140 ± 50 nM | EC50 (FLUAV-GFP [15]): 120 ± 30 nM | viability at 0.01 µM (FLUAV-GFP [16]): 50% | viability at 0.02 µM (FLUAV-GFP [16]): 51% | viability at 0.05 µM (FLUAV-GFP [16]): 66% | viability at 0.15 µM (FLUAV-GFP [16]): 68% | viability at 0.44 µM (FLUAV-GFP [16]): 76% | viability at 24 h, 0.01 μM [17]: 72% | viability at 24 h, 0.02 μM [17]: 80% | viability at 24 h, 0.05 μM [17]: 76% | viability at 24 h, 0.15 μM [17]: 76% | viability at 24 h, 0.44 μM [17]: 80%

COC1=CC(c2cc3ccccc3[nH]2)=N/C1=C\c1[nH]c(C)cc1C [Obatoclax]
EC50 (RVFV): 40 ± 10 nM | EC50 (FLUAV): 40 ± 10 nM | HSV-2 production in RPE cells (plaque assay) (HSV-2 [7]): lowered the production of HSV-2 | EV1 production in RPE cells (plaque assay) (EV1 [4]): lowered the production of EV1 | Initial screening: rescue of HSV-2-infected cells (HSV-2 [8]): rescued cells from virus-mediated death | SI (CC50/EC50) (HSV-2 [8]): 12 | Initial screening: rescue of EV1-infected cells (EV1 [5]): rescued cells from virus-mediated death | SI (CC50/EC50) (EV1 [5]): 25 | RVFV-mediated RFP expression (RVFV-RFP [10]): inhibited RVFV-mediated RFP expression at non-cytotoxic concentrations | Initial screening: HMPV-mediated GFP expression (HMPV-GFP [11]): lowered GFP expression without detectable cytotoxicity | Initial screening: FLUAV-mediated GFP expression (FLUAV-GFP [12]): lowered GFP expression without detectable cytotoxicity | SI (CC50/EC50) (FLUAV-GFP [12]): 31 | EC50 (HSV-2 [9]): 100 ± 20 nM | EC50 (EV1 [6]): 120 ± 10 nM | EC50 (RVFV-RFP [13]): 320 ± 90 nM | EC50 (HMPV-GFP [14]): 120 ± 20 nM | EC50 (FLUAV-GFP [15]): 100 ± 10 nM | viability at 0.01 µM (FLUAV-GFP [16]): 60% | viability at 0.02 µM (FLUAV-GFP [16]): 72% | viability at 0.05 µM (FLUAV-GFP [16]): 80% | viability at 0.15 µM (FLUAV-GFP [16]): 90% | viability at 0.44 µM (FLUAV-GFP [16]): 76% | viability at 24 h, 0.01 μM [17]: 81% | viability at 24 h, 0.02 μM [17]: 77% | viability at 24 h, 0.05 μM [17]: 78% | viability at 24 h, 0.15 μM [17]: 81% | viability at 24 h, 0.44 μM [17]: 77%

Nc1nc(O)c2ncn(COC(CO)CO)c2n1 [Ganciclovir]
HSV-2 production in RPE cells (plaque assay) (HSV-2 [7]): lowered the production of HSV-2 | Initial screening: rescue of HSV-2-infected cells (HSV-2 [8]): rescued cells from virus-mediated death | CC50 (in vitro): > 30000 nM | EC50 (HSV-2 [9]): 40 ± 10 nM

— publication PMC6832696 (Viruses, 2019)
